# Target: Aβ42 (Homo sapiens, UniProt P05067)
# Assay: Th-T (thioflavin-T) assay of Aβ42 aggregation
# Assay type: biochemical
# Conditions: for Th-T assay plate reading, mean of three wells (Supplementary Fig. 47): source data, Ab alone and No Ab as controls
# Aβ42, sequence (P05067 672-713): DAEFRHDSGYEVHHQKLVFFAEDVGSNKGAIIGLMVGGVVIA
smiles,measurement,setting,value
CC(C)=CCC/C(C)=C/CC/C(C)=C/CC/C(C)=C/Cc1c(O)c(C)c(C)oc1=O [Compound 2],"Th-T fluorescence, mean of three wells","Aβ42 aggregation time course, reading M117",2.942
same,"Th-T fluorescence, mean of three wells","Aβ42 aggregation time course, reading M118",2.9616
same,"Th-T fluorescence, mean of three wells","Aβ42 aggregation time course, reading M119",2.929
same,"Th-T fluorescence, mean of three wells","Aβ42 aggregation time course, reading M120",2.963
same,"Th-T fluorescence, mean of three wells","Aβ42 aggregation time course, reading M121",2.95
same,"Th-T fluorescence, mean of three wells","Aβ42 aggregation time course, reading M122",2.943
same,"Th-T fluorescence, mean of three wells","Aβ42 aggregation time course, reading M123",2.95
same,"Th-T fluorescence, mean of three wells","Aβ42 aggregation time course, reading M124",2.945
same,"Th-T fluorescence, mean of three wells","Aβ42 aggregation time course, reading M125",2.938
same,"Th-T fluorescence, mean of three wells","Aβ42 aggregation time course, reading M126",2.934
same,"Th-T fluorescence, mean of three wells","Aβ42 aggregation time course, reading M127",2.935
same,"Th-T fluorescence, mean of three wells","Aβ42 aggregation time course, reading M128",2.947
same,"Th-T fluorescence, mean of three wells","Aβ42 aggregation time course, reading M129",2.9294
same,"Th-T fluorescence, mean of three wells","Aβ42 aggregation time course, reading M130",2.914
same,"Th-T fluorescence, mean of three wells","Aβ42 aggregation time course, reading M131",2.934
same,"Th-T fluorescence, mean of three wells","Aβ42 aggregation time course, reading M132",2.934
same,"Th-T fluorescence, mean of three wells","Aβ42 aggregation time course, reading M133",2.945
same,"Th-T fluorescence, mean of three wells","Aβ42 aggregation time course, reading M134",2.942
same,"Th-T fluorescence, mean of three wells","Aβ42 aggregation time course, reading M135",2.931
same,"Th-T fluorescence, mean of three wells","Aβ42 aggregation time course, reading M136",2.912
same,"Th-T fluorescence, mean of three wells","Supplementary Fig. 47, reading M137",2.914
same,"Th-T fluorescence, mean of three wells","Supplementary Fig. 47, reading M138",2.931
same,"Th-T fluorescence, mean of three wells","Supplementary Fig. 47, reading M139",2.919
same,"Th-T fluorescence, mean of three wells","Supplementary Fig. 47, reading M140",2.936
same,"Th-T fluorescence, mean of three wells","Supplementary Fig. 47, reading M141",2.944
same,"Th-T fluorescence, mean of three wells","Supplementary Fig. 47, reading M142",2.9414
same,"Th-T fluorescence, mean of three wells","Supplementary Fig. 47, reading M143",2.941
same,"Th-T fluorescence, mean of three wells","Supplementary Fig. 47, reading M144",2.932
same,"Th-T fluorescence, mean of three wells","Supplementary Fig. 47, reading M145",2.925
same,"Th-T fluorescence, mean of three wells","Supplementary Fig. 47 source data, measurement M37 of time course",2.747
same,"Th-T fluorescence, mean of three wells","Supplementary Fig. 47 source data, measurement M38 of time course",2.734
same,"Th-T fluorescence, mean of three wells","Supplementary Fig. 47 source data, measurement M39 of time course",2.741
same,"Th-T fluorescence, mean of three wells","Supplementary Fig. 47 source data, measurement M40 of time course",2.757
same,"Th-T fluorescence, mean of three wells","Supplementary Fig. 47 source data, measurement M41 of time course",2.789
same,"Th-T fluorescence, mean of three wells","Supplementary Fig. 47 source data, measurement M42 of time course",2.791
same,"Th-T fluorescence, mean of three wells","Supplementary Fig. 47 source data, measurement M43 of time course",2.8204
same,"Th-T fluorescence, mean of three wells","Supplementary Fig. 47 source data, measurement M44 of time course",2.818
same,"Th-T fluorescence, mean of three wells","Supplementary Fig. 47 source data, measurement M45 of time course",2.833
same,"Th-T fluorescence, mean of three wells","Supplementary Fig. 47 source data, measurement M46 of time course",2.86
same,"Th-T fluorescence, mean of three wells","Supplementary Fig. 47 source data, measurement M47 of time course",2.867
same,"Th-T fluorescence, mean of three wells","Supplementary Fig. 47 source data, measurement M48 of time course",2.874
same,"Th-T fluorescence, mean of three wells","Supplementary Fig. 47 source data, measurement M49 of time course",2.883
same,"Th-T fluorescence, mean of three wells","Supplementary Fig. 47 source data, measurement M50 of time course",2.863
same,"Th-T fluorescence, mean of three wells","Supplementary Fig. 47 source data, measurement M51 of time course",2.8662
same,"Th-T fluorescence, mean of three wells","Supplementary Fig. 47 source data, measurement M52 of time course",2.876
same,"Th-T fluorescence, mean of three wells","Supplementary Fig. 47 source data, measurement M53 of time course",2.889
same,"Th-T fluorescence, mean of three wells","Supplementary Fig. 47 source data, measurement M54 of time course",2.875
same,"Th-T fluorescence, mean of three wells","Supplementary Fig. 47 source data, measurement M55 of time course",2.914
same,"Th-T fluorescence, mean of three wells","Supplementary Fig. 47 source data, measurement M56 of time course",2.914
same,"Th-T assay plate reading, mean of three wells (Supplementary Fig. 47)",measurement M1,0.5144
same,"Th-T assay plate reading, mean of three wells (Supplementary Fig. 47)",measurement M2,0.4337
same,"Th-T assay plate reading, mean of three wells (Supplementary Fig. 47)",measurement M3,0.4376
same,"Th-T assay plate reading, mean of three wells (Supplementary Fig. 47)",measurement M4,0.4602
same,"Th-T assay plate reading, mean of three wells (Supplementary Fig. 47)",measurement M5,0.5047
same,"Th-T assay plate reading, mean of three wells (Supplementary Fig. 47)",measurement M6,0.5652
same,"Th-T assay plate reading, mean of three wells (Supplementary Fig. 47)",measurement M7,0.6146
same,"Th-T assay plate reading, mean of three wells (Supplementary Fig. 47)",measurement M8,0.6765
same,"Th-T assay plate reading, mean of three wells (Supplementary Fig. 47)",measurement M9,0.8275
same,"Th-T assay plate reading, mean of three wells (Supplementary Fig. 47)",measurement M10,1.067
same,"Th-T assay plate reading, mean of three wells (Supplementary Fig. 47)",measurement M11,1.395
same,"Th-T assay plate reading, mean of three wells (Supplementary Fig. 47)",measurement M12,1.75
same,"Th-T assay plate reading, mean of three wells (Supplementary Fig. 47)",measurement M13,2.113
same,"Th-T assay plate reading, mean of three wells (Supplementary Fig. 47)",measurement M14,2.291
same,"Th-T assay plate reading, mean of three wells (Supplementary Fig. 47)",measurement M15,2.38
same,"Th-T assay plate reading, mean of three wells (Supplementary Fig. 47)",measurement M16,2.421
same,"Th-T fluorescence, mean of three wells","reading M17, Supplementary Fig. 47 source data",2.473
same,"Th-T fluorescence, mean of three wells","reading M18, Supplementary Fig. 47 source data",2.4977
same,"Th-T fluorescence, mean of three wells","reading M19, Supplementary Fig. 47 source data",2.533
same,"Th-T fluorescence, mean of three wells","reading M20, Supplementary Fig. 47 source data",2.556
same,"Th-T fluorescence, mean of three wells","reading M21, Supplementary Fig. 47 source data",2.585
same,"Th-T fluorescence, mean of three wells","reading M22, Supplementary Fig. 47 source data",2.595
same,"Th-T fluorescence, mean of three wells","reading M23, Supplementary Fig. 47 source data",2.641
same,"Th-T fluorescence, mean of three wells","reading M24, Supplementary Fig. 47 source data",2.62
same,"Th-T fluorescence, mean of three wells","reading M25, Supplementary Fig. 47 source data",2.6309
same,"Th-T fluorescence, mean of three wells","reading M26, Supplementary Fig. 47 source data",2.664
same,"Th-T fluorescence, mean of three wells","reading M27, Supplementary Fig. 47 source data",2.655
same,"Th-T fluorescence, mean of three wells","reading M28, Supplementary Fig. 47 source data",2.667
same,"Th-T fluorescence, mean of three wells","reading M29, Supplementary Fig. 47 source data",2.665
same,"Th-T fluorescence, mean of three wells","reading M30, Supplementary Fig. 47 source data",2.687
same,"Th-T fluorescence, mean of three wells","reading M31, Supplementary Fig. 47 source data",2.687
same,"Th-T fluorescence, mean of three wells","reading M32, Supplementary Fig. 47 source data",2.686
same,"Th-T fluorescence, mean of three wells","reading M33, Supplementary Fig. 47 source data",2.738
same,"Th-T fluorescence, mean of three wells","reading M34, Supplementary Fig. 47 source data",2.752
same,"Th-T fluorescence, mean of three wells","reading M35, Supplementary Fig. 47 source data",2.742
same,"Th-T fluorescence, mean of three wells","reading M36, Supplementary Fig. 47 source data",2.736
same,"Th-T fluorescence, mean of three wells","time course, reading M57",2.932
same,"Th-T fluorescence, mean of three wells","time course, reading M58",2.915
same,"Th-T fluorescence, mean of three wells","time course, reading M59",2.925
same,"Th-T fluorescence, mean of three wells","time course, reading M60",2.927
same,"Th-T fluorescence, mean of three wells","time course, reading M61",2.927
same,"Th-T fluorescence, mean of three wells","time course, reading M62",2.927
same,"Th-T fluorescence, mean of three wells","time course, reading M63",2.935
same,"Th-T fluorescence, mean of three wells","time course, reading M64",2.936
same,"Th-T fluorescence, mean of three wells","time course, reading M65",2.95
same,"Th-T fluorescence, mean of three wells","time course, reading M66",2.938
same,"Th-T fluorescence, mean of three wells","time course, reading M67",2.956
same,"Th-T fluorescence, mean of three wells","time-course reading M97, Supplementary Fig. 47 source data",2.938
same,"Th-T fluorescence, mean of three wells","time-course reading M98, Supplementary Fig. 47 source data",2.952
same,"Th-T fluorescence, mean of three wells","time-course reading M99, Supplementary Fig. 47 source data",2.942
same,"Th-T fluorescence, mean of three wells","time-course reading M100, Supplementary Fig. 47 source data",2.953
same,"Th-T fluorescence, mean of three wells","time-course reading M101, Supplementary Fig. 47 source data",2.966
same,"Th-T fluorescence, mean of three wells","time-course reading M102, Supplementary Fig. 47 source data",2.943
same,"Th-T fluorescence, mean of three wells","time-course reading M103, Supplementary Fig. 47 source data",2.949
same,"Th-T fluorescence, mean of three wells","time-course reading M104, Supplementary Fig. 47 source data",2.951
same,"Th-T fluorescence, mean of three wells","time-course reading M105, Supplementary Fig. 47 source data",2.946
same,"Th-T fluorescence, mean of three wells","time-course reading M106, Supplementary Fig. 47 source data",2.949
same,"Th-T fluorescence, mean of three wells","time-course reading M107, Supplementary Fig. 47 source data",2.931
same,"Th-T fluorescence, mean of three wells","time-course reading M108, Supplementary Fig. 47 source data",2.953
same,"Th-T fluorescence, mean of three wells","time-course reading M109, Supplementary Fig. 47 source data",2.942
same,"Th-T fluorescence, mean of three wells","time-course reading M110, Supplementary Fig. 47 source data",2.939
same,"Th-T fluorescence, mean of three wells","time-course reading M111, Supplementary Fig. 47 source data",2.961
same,"Th-T fluorescence, mean of three wells","time-course reading M112, Supplementary Fig. 47 source data",2.955
same,"Th-T fluorescence, mean of three wells","time-course reading M113, Supplementary Fig. 47 source data",2.9565
same,"Th-T fluorescence, mean of three wells","time-course reading M114, Supplementary Fig. 47 source data",2.9516
same,"Th-T fluorescence, mean of three wells","time-course reading M115, Supplementary Fig. 47 source data",2.943
same,"Th-T fluorescence, mean of three wells","time-course reading M116, Supplementary Fig. 47 source data",2.94
